Experimental findings from patent US20040191168A1, “Tumor cell killing by cell cycle checkpoint abrogation combined with Inhibition of the classical mitogen activated protein (map) kinase pathway” (priority 2000, published 2004) are described below.

Like-named read-outs stand apart in the source and are kept apart here.

The test system of test [1] is U937 cells. Briefly: Morphological assessment of apoptosis (Wright-Giemsa cytospins) in U937 cells. It is filed as cell-based, human. Particulars: for effect on apoptosis in PD184352/UCN-01-treated cells / effect on induction of apoptosis by UCN-01 and PD184352: UCN-01 150 nM + PD184352 10 μM; for effect on apoptosis in PD184352/UCN-01-treated cells: SB203580 10 μM, CHX 1 mM; for Apoptotic cells (%): PD184352 10 μM, GFX 1 μM, safingol 2 μM, mean ± SD; for effect on induction of apoptosis by UCN-01 and PD184352: 10 h, caspase inhibitor 20 μM. As to the method: (§1) Experimental Format. All of the experiments were performed using logarithmically growing cells (3-5×10^5 cells/ml). Cell suspensions were placed in sterile 25 cm^2 T-flasks (Corning, Corning, N.Y.) and incubated with MEK or PKC inhibitors for 30 min at 37° C. At the end of this period, UCN-01 (or in some cases, caffeine) was added to the suspension, and the flasks were placed in 37° C./5% CO2 incubator at various intervals, generally 18 h. In some studies, the p38 MAP kinase inhibitor SB203580 was added concurrently with MEK inhibitors. After drug treatment, cells were harvested and subjected to further analysis as described below.
Analysis of Apoptosis. […] For each condition, 5 to 10 randomly selected fields/condition were evaluated, encompassing at least 500 cells (Vrana and Grant, 2001). To confirm the results of morphological analysis, in some cases cells were also evaluated by TUNEL staining (Gorczyca et al., 1993) and assessment of oligonucleosomal DNA fragmentation of total DNA. DNA fragmentation was analyzed by 1.8% agarose gel electrophoresis as described previously (Jarvis et al., 1994). For TUNEL staining, cytocentrifuge preparations were obtained and fixed with 4% formaldehyde. The slides were treated with acetic acid/ethanol (1:2), stained with terminal transferase reaction mixture containing terminal transferase reaction buffer, 0.25 units/ ml terminal transferase, 2.5 mM CoCl2, and 2 pmol fluorescein-12-dUTP (Boehringer Mannheim, Indianapolis, Ind.), and visualized using fluorescence microscopy.

The test system of test [2] is U937 cells. Briefly: Loss of mitochondrial membrane potential (reduced DiOC6 uptake, flow cytometry) in U937 cells. It is filed as cell-based, human. Particulars: for effect on mitochondrial injury (loss of ΔΨm) in PD184352/UCN-01-treated cells / effect on loss of ΔΨm by UCN-01 and PD184352: UCN-01 150 nM + PD184352 10 μM; for effect on mitochondrial injury (loss of ΔΨm) in PD184352/UCN-01-treated cells: SB203580 10 μM, CHX 1 mM; for "Low" DiOC6 (% cells): PD184352 10 μM, GFX 1 μM, safingol 2 μM, mean ± SD; for effect on loss of ΔΨm by UCN-01 and PD184352: 10 h, caspase inhibitor 20 μM. As to the method:
as §1
Analysis of Mitochondrial Membrane Potential (ΔΨm). Cells 2×10^5 were incubated with 40 nM DiOC6 (Molecular Probes Inc., Eugene, Oreg.) in PBS at 37° C. for 20 min and then analyzed by flow cytometry as described previously (Wang et al., 1999).

The next test deals with MAPK/ERK. Briefly: p42 MAPK immune complex kinase assay in carcinoma cells. The format is cell-based, human. Particulars: MCF7, MDA-MB-231, T47D and DU145 cells; UCN-01 150 nM; MEK1/2 inhibitors (PD98059 25 μM, PD184352 10 μM, U0126 5 μM) given with UCN-01. The method, then:
Immunoprecipitations from Lysates. Fifty microliters of Protein A agarose (Ag) slurry (25 μl bead volume) was washed twice with 1 ml PBS containing 0.1% (v/v) Tween 20, and resuspended in 0.1 ml of the same buffer. Antibodies (2 μg, 20 μl), serum (20 μl) were added to each tube and incubated (3 h, 4° C.). For pre-conjugated antibodies,10 μl of slurry (4 μg antibody) was used. Clarified equal aliquots of lysates (0.25 ml, 100 μg total protein) were mixed with Ag-conjugated antibodies in duplicate using gentle agitation (2.5 h, 4° C.). Ag-antibody-antigen complexes were recovered by centrifugation, the supernatant discarded, and washed (10 min) sequentially with 0.5 ml buffer A (twice), PBS and buffer B [25 mM Hepes, pH 7.4, 0.1 mM Na3VO4].
Assay of p42^MAPK activity. Immunoprecipitates were incubated (final volume 50 μl ) with 50 μl of buffer B containing 0.2 mM [γ-^32P]ATP (5000 cpm/pmol), 1 μM Microcystin-LR, 0.5 mg/ml myelin basic protein NP), which initiated reactions at time=0. After 20 min., 40 μl of the reaction mixtures were spotted onto a 2 cm circle of P81 paper (Whatman, Maidstone, England) and immediately placed into 180 mM phosphoric acid. Papers were washed four times (10 min each) with phosphoric acid, and once with acetone, and ^32P-incorporation into MBP was quantified by liquid scintillation spectroscopy.

The test system of another test is DU145 cells. Briefly: Colony forming (clonogenic) assay in DU145 cells. Particulars: 25 μM PD98059, 150 nM UCN-01, replated 48 h, ± SEM. The format is cell-based, human. As to the method:
(§2) Colony forming (clonogenic) assay. Cells were plated 36 h prior to experimentation. Cells were pre-treated with MEK1/2 inhibitor as indicated, 2 h prior to exposure. Cells were irradiated (2 Gy). After a further 48 h, cells were isolated by tryptic digestion and single cell suspensions plated on Linbro® plates at densities of 500 cells/well and 1000 cells/well. Colony formation was defined as a colony of 50 cells or greater, 10 days after plating.

The subject of test [3] is MCF7 cells. Briefly: Colony forming (clonogenic) assay in MCF7 cells. It is filed as cell-based, human. Particulars: 25 μM PD98059, 150 nM UCN-01, replated 48 h, ± SEM. As to the method: as §2
The next test has as its system T47D cells. Briefly: Colony forming (clonogenic) assay in T47D cells. The format is cell-based, human. The conditions noted are these: 25 μM PD98059, 150 nM UCN-01, replated 48 h, ± SEM. The method, then: as §2
The subject of test [4] is MDA-MB-231 cells. Briefly: Colony forming (clonogenic) assay in MDA-MB-231 cells. The format is cell-based, human. Particulars: MDA-MB-231 (MDA), 25 μM PD98059, 150 nM UCN-01, replated 48 h, ± SEM. As to the method: as §2
Test [5] concerns MDA-MB-231 cells. Briefly: TUNEL apoptosis in MDA-MB-231 cells. It is filed as cell-based, human. Particulars: MDA-MB-231, 24 h; with 150 nM UCN-01; PD184352 10 μM, U0126 5 μM; FIG. 8A. The source says:
(§3) Terminal Uridyl-Nucleotide End Labeling (TUNEL) for apoptosis.

The test system of test [6] is MCF7 cells. Particulars: MCF7, 24 h; with 150 nM UCN-01; PD184352 10 μM, U0126 5 μM; FIG. 8B. The method, then: Terminal Uridyl-Nucleotide End Labeling (TUNEL) for apoptosis. […] Cells were isolated 24 h after irradiation by trypsinizationi followed by centrifugation onto glass slides (cytospin). Terminal Uridyl-Nucleotide End Labeling (TUNEL) was performed on these cells as described previously [Wang et al., 1999; Park et al., 1999]. Randomly selected fields of fixed cells (150 cells per field, n=5 per slide) were counted initially using propidium iodide counter stain, followed by examination and counting of TUNEL positive staining cells of the same field under FITC/fluorescence light.

For test [7], the system named is mammary and prostate carcinoma cells. Briefly: Apoptosis by double stranded DNA breaks (TUNEL) in carcinoma cells, all cell types examined. The format is cell-based, human. The conditions noted are these: for effect on potentiation of apoptosis by MEK1/2 inhibitor and UCN-01: carcinoma cells, 24 h, 25 μM PD98059 + 150 nM UCN-01, caspase inhibitor 20 μM.
From the text: as §3

In the case of `C[C@@H]1C[C@@H]([C@H](O)CC2CC(=O)NC(=O)C2)C(=O)[C@@H](C)C1` [CHX, cycloheximide], the “effect on apoptosis in PD184352/UCN-01-treated cells” value in the test on U937 cells [1] (U937 cells, 18 h) is recorded as “not attenuated”. Also, in the test on U937 cells [2] (18 h), the “effect on mitochondrial injury (loss of ΔΨm) in PD184352/UCN-01-treated cells” value was “not attenuated”.
On to `Cn1c(=O)c2c(ncn2C)n(C)c1=O` [Caffeine], for which the “apoptosis in PD184352-treated cells” value with U937 cells [1] (U937 cells, 18 h, caffeine 2 mM with PD184352 10 μM, FIG. 4A) is given as “substantially increased”. Also, the “mitochondrial damage (reduction in ΔΨm) in PD184352-treated cells” value in the test on U937 cells [2] (18 h, caffeine 2 mM with PD184352 10 μM, FIG. 4A) is recorded as “substantially increased”.
Turning to `O=c1cc(N2CCOCC2)oc2c(-c3ccccc3)cccc12` [LY294002], the “percentage of apoptotic cells” value in the test on U937 cells [1] (U937 cells, 24 hr, 100 nM UCN-01, 10 μM LY294002, FIG. 14) is listed as “about 20%”.
`COc1cccc(-c2cc(=O)c3ccccc3o2)c1N` [PD98059]: the “cell death (morphological features of apoptosis) on coadministration with UCN-01” value with U937 cells [1] (U937 cells, 24 h, with 200 nM UCN-01, PD98059 50 μM, U0126 20 μM (FIG. 1C, D)) is listed as “marked potentiation of cell death”. For the same molecule, the “MAPK/ERK activity (immune complex kinase assay)” value in the test on MAPK/ERK is recorded as “opposed”. For the same molecule, the “clonogenic survival (colonies, normalized to control unirradiated cells = 100%)” value with DU145 cells (DU145, 2 Gy) is given as 65 ± 2%; in the test on DU145 cells (DU145, mock irradiated), 99 ± 6%; in the test on MCF7 cells [3] (MCF7, 2 Gy), 39 ± 3 %; in the test on MCF7 cells [3] (MCF7, mock irradiated), 91 ± 5%; in the test with T47D cells (2 Gy), 69 ± 5%; in the test with T47D cells (mock irradiated), 97 ± 2%. The figures for the “clonogenic survival (colonies, normalized to control unirradiated cells = 100%)” value with MDA-MB-231 cells [4] (2 Gy) and in the test with MDA-MB-231 cells [4] (mock irradiated) were 44 ± 1 % and 91 ± 1%, respectively.
As to `C[S+]([O-])c1ccc(-c2nc(-c3ccncc3)c(-c3ccc(F)cc3)[nH]2)cc1` (centres unmarked) [SB203580], the “effect on apoptosis in PD184352/UCN-01-treated cells” value in the test on U937 cells [1] (U937 cells, 18 h) is on record as “only partially attenuated”. Also, the “effect on mitochondrial injury (loss of ΔΨm) in PD184352/UCN-01-treated cells” value in the test with U937 cells [2] (18 h) is recorded as “only partially attenuated”.
For the molecule `CCCCCCCCCCCCCCC[C@H](O)[C@@H](N)CO` [Safingol], the “Apoptotic cells (%)” value in the test with U937 cells [1] (U937 cells, 18 h) was determined as 1.9 ± 0.2%. Besides, the “"Low" DiOC6 (% cells)” value in the test on U937 cells [2] (18 h) amounted to 13.6 ± 0.8%.
On to `N#CC(=C(/N)Sc1ccccc1N)/C(C#N)=C(\N)Sc1ccccc1N` [U0126], for which the “cell death (morphological features of apoptosis) on coadministration with UCN-01” value in the test on U937 cells [1] is “marked potentiation of cell death”. In addition, the “MAPK/ERK activity (immune complex kinase assay)” value in the test on MAPK/ERK is “opposed”. Besides, the “apoptosis in combination with UCN-01” value with MDA-MB-231 cells [5] and in the test with MCF7 cells [6] was “enhanced apoptosis” throughout.
Regarding IETD, the “effect on induction of apoptosis by UCN-01 and PD184352” value in the test on U937 cells [1] (U937 cells) is on record as “ineffective”. Also, the “effect on loss of ΔΨm by UCN-01 and PD184352” value with U937 cells [2] was “ineffective”. In addition, the “effect on potentiation of apoptosis by MEK1/2 inhibitor and UCN-01” value in test [7] is “partially attenuated”.
Take ZVAD-fmk: the “effect on induction of apoptosis by UCN-01 and PD184352” value with U937 cells [1] (U937 cells) is reported as “blocked”. Moreover, the “effect on loss of ΔΨm by UCN-01 and PD184352” value in the test with U937 cells [2] is reported as “blocked”. For the same molecule, the “effect on potentiation of apoptosis by MEK1/2 inhibitor and UCN-01” value in test [7] is reported as “abolished”.
Consider bisindolylmaleimide [GFX], for which, in the test on U937 cells [1] (U937 cells, 18 h), the “Apoptotic cells (%)” value was 1.9 ± 0.2%. For the same molecule, in the test with U937 cells [2] (18 h), the “"Low" DiOC6 (% cells)” value was 13.2 ± 0.6%. For the same molecule, the “apoptosis after 24 h” value in test [7] (all carcinoma cell types examined, bisindolylmaleimide 1 μM in place of UCN-01) is recorded as “did not mimic the actions of UCN-01”.
